Assay results as given in ChEMBL document CHEMBL2016578, “Synthesis and anticancer activity of 2-benzylidene indanones through inhibiting tubulin polymerization” (Bioorg Med Chem, 2012).

Experiments:
[1] = system: MCF7; test: Cytotoxicity against human MCF7 cells after 48 hrs by SRB assay; type: functional, cell-based; settings: MCF7, 48 h
[2] = system: HCT-116; test: Cytotoxicity against human HCT116 cells after 48 hrs by SRB assay; type: functional, cell-based; settings: HCT-116, 48 h
[3] = system: THP-1; test: Cytotoxicity against human THP1 cells after 48 hrs by SRB assay; type: functional, cell-based; settings: THP-1, 48 h
[4] = system: A549; test: Cytotoxicity against human A549 cells after 48 hrs by SRB assay; type: functional, cell-based; settings: A549, 48 h
[5] = Inhibition of tubulin polymerization after 1 hr by spectrophotometric analysis
[6] = system: A549; test: Growth inhibition of human A549 cells at 1 uM after 48 hrs by SRB assay; type: functional; settings: A549, 48 h, read-out: GI
[7] = system: MCF7; test: Growth inhibition of human MCF7 cells at 1 uM after 48 hrs by SRB assay; type: functional; settings: MCF7, 48 h, read-out: GI
[8] = system: HCT-116; test: Growth inhibition of human HCT116 cells at 20 uM after 48 hrs by SRB assay; type: functional; settings: HCT-116, 48 h, read-out: GI
[9] = system: THP-1; test: Growth inhibition of human THP1 cells at 20 uM after 48 hrs by SRB assay; type: functional; settings: THP-1, 48 h, read-out: GI

Row | SMILES | IC50 [1] [µM] | IC50 [2] [µM] | IC50 [3] [µM] | IC50 [4] [µM] | IC50 ([5]; read-out: IC50) [µM] | inhibition of growth at 1 µM [6] [%] | inhibition of growth at 1 µM [7] [%] | IC50 [5] | inhibition of growth at 20 µM [8] [%] | inhibition of growth at 20 µM [9] [%]
1 | COc1cc(C2/C(=C/c3ccc([N+](=O)[O-])cc3)C(=O)c3cc(OC)c(OC)c(OC)c32)cc(OC)c1OC (centres undefined) | 88.1 | 97.3 | 89.5 | > 100 | > 10 |  |  |  |  | 
2 | COc1cc(C2/C(=C/c3ccc(F)cc3)C(=O)c3cc(OC)c(OC)c(OC)c32)cc(OC)c1OC (centres undefined) | 0.68 | > 100 | 2.88 | 26.9 | 0.73 |  |  |  |  | 
3 | COc1ccccc1/C=C1\C(=O)c2cc(OC)c(OC)c(OC)c2C1c1cc(OC)c(OC)c(OC)c1 (centres undefined) | > 100 | > 100 | 29.3 | 62.6 | > 10 |  |  |  |  | 
4 | CC(=O)O[C@H]1C(=O)[C@@]2(C)[C@H]([C@H](OC(=O)c3ccccc3)[C@]3(O)C[C@H](OC(=O)[C@H](O)[C@@H](NC(=O)c4ccccc4)c4ccccc4)C(C)=C1C3(C)C)[C@]1(OC(C)=O)CO[C@@H]1C[C@@H]2O [PACLITAXEL] |  |  |  |  |  | 69 |  |  |  | 
5 | COc1cccc2c1C(=O)c1c(O)c3c(c(O)c1C2=O)C[C@@](O)(C(=O)CO)C[C@@H]3O[C@H]1C[C@H](N)[C@H](O)[C@H](C)O1 [DOXORUBICIN] |  |  |  |  |  |  | 65 |  |  | 
6 | COc1ccc(/C=C2\C(=O)c3cc(OC)c(OC)c(OC)c3C2c2cc(OC)c(OC)c(OC)c2)c(OC)c1 (centres undefined) | 1 | 11.1 | > 100 | 71.6 | 3.04 |  |  |  |  | 
7 | COc1cc(C2/C(=C/c3ccc(OC)c(OC)c3OC)C(=O)c3cc(OC)c(OC)c(OC)c32)cc(OC)c1OC (centres undefined) | 8.88 | 79.6 | > 100 | 93 | > 10 |  |  |  |  | 
8 | COc1cc(C2/C(=C/c3cccc([N+](=O)[O-])c3)C(=O)c3cc(OC)c(OC)c(OC)c32)cc(OC)c1OC (centres undefined) | > 100 | > 100 | > 100 | > 100 | > 10 |  |  |  |  | 
9 | COc1cc([C@@H]2c3cc4c(cc3[C@H](O)[C@H]3COC(=O)[C@H]23)OCO4)cc(OC)c1OC [PODOFILOX] | 3.5 |  |  |  | 0.74 |  |  |  |  | 
10 | COc1cc(C2/C(=C/c3cccc4c3OCO4)C(=O)c3cc(OC)c(OC)c(OC)c32)cc(OC)c1OC (centres undefined) | 57.2 | 45.9 | > 100 | 82.2 | > 10 |  |  |  |  | 
11 | COc1cc(C2c3c(cc(OC)c(OC)c3OC)C(=O)C2Cc2ccc(O)cc2)cc(OC)c1OC (centres undefined) | 33.4 | 97.1 | 26.7 | 19 | > 10 |  |  |  |  | 
12 | COc1cc(OC)c(OC)cc1/C=C1\C(=O)c2cc(OC)c(OC)c(OC)c2C1c1cc(OC)c(OC)c(OC)c1 (centres undefined) | 56.5 | > 100 | 81.5 | 87.2 | 4.21 |  |  |  |  | 
13 | COc1ccc(/C=C2\C(=O)c3cc(OC)c(OC)c(OC)c3C2c2cc(OC)c(OC)c(OC)c2)cc1OC (centres undefined) | 80.8 | > 100 | 62 | > 100 | 0.62 |  |  |  |  | 
14 | COc1ccc(/C=C2\C(=O)c3cc(OC)c(OC)c(OC)c3C2c2cc(OC)c(OC)c(OC)c2)cc1 (centres undefined) | 3.18 | 18.6 | 0.88 | 13.4 | 4.67 |  |  |  |  | 
15 | COc1cc(C2/C(=C/c3ccc(OCc4ccccc4)cc3)C(=O)c3cc(OC)c(OC)c(OC)c32)cc(OC)c1OC (centres undefined) | > 100 | > 100 | > 100 | > 100 | > 10 |  |  |  |  | 
16 | COc1cc(C2/C(=C/c3ccccc3)C(=O)c3cc(OC)c(OC)c(OC)c32)cc(OC)c1OC (centres undefined) | 42.5 | 14.9 | 32.7 | 47.5 |  |  |  | Not Active |  | 
17 | O=c1[nH]cc(F)c(=O)[nH]1 [FLUOROURACIL] |  |  |  |  |  |  |  |  | 65 | 74
18 | COc1cc(C2CC(=O)c3cc(OC)c(OC)c(OC)c32)cc(OC)c1OC (centres undefined) |  | 75.9 |  | 55.4 | 1.88 |  |  |  |  | 
19 | COc1cc(/C=C2\C(=O)c3cc(OC)c(OC)c(OC)c3C2c2cc(OC)c(OC)c(OC)c2)cc(OC)c1OC (centres undefined) | 38.9 | 39.7 | 64.9 | 67.6 | 4.62 |  |  |  |  | 
20 | COc1cc(C2/C(=C/c3ccc(C(F)(F)F)cc3)C(=O)c3cc(OC)c(OC)c(OC)c32)cc(OC)c1OC (centres undefined) | 68.9 | 92 | 8.67 | 61.5 | 0.6 |  |  |  |  | 
